Data taken from the NIST ThermoML archive (doi:10.1016/j.jct.2018.11.014).
Numbers after ± are expanded uncertainties.

Assay: molar heat capacity at constant pressure
Settings: 101.33 kPa, Crystal, Vacuum adiabatic calorimetry

O=C(CO)[C@H](O)[C@H](O)[C@H](O)CO [D-psicose]
Settings	molar heat capacity at constant pressure [J/K/mol]
123.06 K	95.25 ± 0.97
123.75 K	95.92 ± 0.98
124.29 K	96.23 ± 0.98
124.5 K	96.3 ± 0.99
125.14 K	96.92 ± 0.99
125.8 K	97.36 ± 1
125.92 K	97.34 ± 1
126.54 K	97.93 ± 1
127.3 K	98.49 ± 1
127.33 K	98.38 ± 1
127.93 K	98.98 ± 1
128.73 K	99.42 ± 1
128.78 K	99.54 ± 1
129.31 K	99.93 ± 1
130 K	100.42 ± 1
130.16 K	100.47 ± 1
130.29 K	100.63 ± 1
130.71 K	100.99 ± 1
131.62 K	101.53 ± 1
131.84 K	101.76 ± 1
132.14 K	102.08 ± 1
133.07 K	102.57 ± 1.1
133.37 K	102.87 ± 1.1
133.59 K	103.04 ± 1.1
134.51 K	103.62 ± 1.1
134.89 K	103.97 ± 1.1
135.06 K	104.17 ± 1.1
135.94 K	104.68 ± 1.1
136.44 K	105.12 ± 1.1
136.51 K	105.24 ± 1.1
137.4 K	105.69 ± 1.1
137.99 K	106.23 ± 1.1
138.07 K	106.25 ± 1.1
138.89 K	106.78 ± 1.1
139.5 K	107.37 ± 1.1
139.73 K	107.46 ± 1.1
140 K	107.65 ± 1.1
140.36 K	107.86 ± 1.1
141 K	108.43 ± 1.1
141.38 K	108.63 ± 1.1
141.83 K	108.94 ± 1.1
142.49 K	109.66 ± 1.1
143.02 K	109.81 ± 1.1
143.29 K	109.97 ± 1.1
143.97 K	110.56 ± 1.1
144.64 K	111.02 ± 1.1
144.78 K	111.03 ± 1.1
145.47 K	111.62 ± 1.1
146.29 K	112.11 ± 1.1
146.3 K	112.15 ± 1.1
147.05 K	112.77 ± 1.1
147.84 K	113.18 ± 1.1
147.99 K	113.34 ± 1.1
148.65 K	113.9 ± 1.2
149.42 K	114.29 ± 1.2
149.66 K	114.52 ± 1.2
150 K	114.81 ± 1.2
150.25 K	115.05 ± 1.2
150.99 K	115.45 ± 1.2
151.33 K	115.73 ± 1.2
151.83 K	116.23 ± 1.2
152.59 K	116.62 ± 1.2
152.98 K	116.92 ± 1.2
153.45 K	117.32 ± 1.2
154.22 K	117.72 ± 1.2
154.66 K	118.11 ± 1.2
155.09 K	118.5 ± 1.2
155.87 K	118.94 ± 1.2
156.38 K	119.3 ± 1.2
156.72 K	119.64 ± 1.2
157.54 K	120.08 ± 1.2
158.08 K	120.68 ± 1.2
158.34 K	120.83 ± 1.2
159.19 K	121.26 ± 1.2
159.8 K	121.76 ± 1.2
159.95 K	121.9 ± 1.2
160 K	121.93 ± 1.2
160.88 K	122.45 ± 1.2
161.55 K	122.94 ± 1.2
161.59 K	123.12 ± 1.2
162.65 K	123.73 ± 1.3
163.25 K	124.33 ± 1.3
163.33 K	124.2 ± 1.3
164.46 K	125 ± 1.3
164.91 K	125.57 ± 1.3
165.14 K	125.56 ± 1.3
166.25 K	126.31 ± 1.3
166.6 K	126.8 ± 1.3
166.94 K	126.82 ± 1.3
168.04 K	127.62 ± 1.3
168.33 K	127.92 ± 1.3
168.72 K	128.08 ± 1.3
169.85 K	128.88 ± 1.3
170 K	129.01 ± 1.3
170.09 K	129.15 ± 1.3
170.5 K	129.38 ± 1.3
171.7 K	130.21 ± 1.3
171.88 K	130.42 ± 1.3
172.31 K	130.62 ± 1.3
173.54 K	131.46 ± 1.3
173.65 K	131.69 ± 1.3
174.14 K	131.92 ± 1.3
175.36 K	132.69 ± 1.4
175.42 K	132.94 ± 1.4
175.97 K	133.17 ± 1.4
177.18 K	134.01 ± 1.4
177.23 K	134.2 ± 1.4
177.78 K	134.49 ± 1.4
179.06 K	135.42 ± 1.4
179.11 K	135.51 ± 1.4
179.59 K	135.75 ± 1.4
180 K	136.08 ± 1.4
181.01 K	136.76 ± 1.4
181.03 K	136.92 ± 1.4
181.46 K	137.08 ± 1.4
182.93 K	138.2 ± 1.4
182.95 K	138.09 ± 1.4
183.4 K	138.47 ± 1.4
184.83 K	139.53 ± 1.4
184.88 K	139.49 ± 1.4
185.32 K	139.84 ± 1.4
186.71 K	140.84 ± 1.4
186.79 K	140.88 ± 1.4
187.28 K	141.21 ± 1.4
188.62 K	142.21 ± 1.4
188.74 K	142.23 ± 1.4
189.26 K	142.58 ± 1.4
190 K	143.15 ± 1.4
190.56 K	143.63 ± 1.5
190.71 K	143.67 ± 1.5
191.28 K	144.05 ± 1.5
192.49 K	144.97 ± 1.5
192.68 K	145.06 ± 1.5
193.32 K	145.45 ± 1.5
194.41 K	146.37 ± 1.5
194.63 K	146.4 ± 1.5
195.35 K	146.92 ± 1.5
196.32 K	147.62 ± 1.5
196.58 K	147.65 ± 1.5
197.38 K	148.33 ± 1.5
198.25 K	149.1 ± 1.5
198.55 K	149.16 ± 1.5
199.39 K	149.76 ± 1.5
200 K	150.21 ± 1.5
200.22 K	150.43 ± 1.5
200.55 K	150.56 ± 1.5
201.43 K	151.19 ± 1.5
202.17 K	151.83 ± 1.5
202.58 K	152.06 ± 1.5
203.5 K	152.67 ± 1.6
204.12 K	153.18 ± 1.6
204.65 K	153.53 ± 1.6
205.56 K	154.09 ± 1.6
206.7 K	154.98 ± 1.6
207.61 K	155.56 ± 1.6
208.78 K	156.4 ± 1.6
209.65 K	157.04 ± 1.6
210 K	157.3 ± 1.6
210.89 K	157.92 ± 1.6
211.72 K	158.49 ± 1.6
212.99 K	159.44 ± 1.6
213.81 K	160.01 ± 1.6
215.07 K	160.9 ± 1.6
215.9 K	161.43 ± 1.6
217.15 K	162.36 ± 1.6
217.98 K	163.06 ± 1.6
219.31 K	163.88 ± 1.7
220 K	164.4 ± 1.7
220.04 K	164.46 ± 1.7
221.53 K	165.48 ± 1.7
222.21 K	165.84 ± 1.7
223.74 K	167.09 ± 1.7
224.47 K	167.6 ± 1.7
225.94 K	168.64 ± 1.7
226.71 K	169.21 ± 1.7
228.14 K	170.2 ± 1.7
228.95 K	170.75 ± 1.7
230 K	171.54 ± 1.7
230.36 K	171.83 ± 1.7
231.25 K	172.46 ± 1.7
232.61 K	173.46 ± 1.8
233.65 K	174.15 ± 1.8
234.87 K	174.98 ± 1.8
236.07 K	175.9 ± 1.8
237.14 K	176.72 ± 1.8
238.49 K	177.45 ± 1.8
239.4 K	178.38 ± 1.8
240 K	178.72 ± 1.8
240.95 K	179.37 ± 1.8
241.69 K	179.82 ± 1.8
243.45 K	181.14 ± 1.8
244.01 K	181.62 ± 1.8
245.99 K	183.07 ± 1.9
246.32 K	183.25 ± 1.9
248.54 K	184.87 ± 1.9
248.61 K	184.95 ± 1.9
250 K	185.94 ± 1.9
250.9 K	186.65 ± 1.9
251.09 K	186.81 ± 1.9
253.21 K	188.45 ± 1.9
253.63 K	188.66 ± 1.9
255.55 K	189.85 ± 1.9
256.15 K	190.4 ± 1.9
257.88 K	191.75 ± 1.9
258.7 K	192.25 ± 1.9
260 K	193.15 ± 1.9
260.93 K	193.78 ± 2
263.32 K	195.6 ± 2
265.71 K	197.22 ± 2
268.09 K	199.02 ± 2
270 K	200.36 ± 2
270.5 K	200.87 ± 2
272.99 K	202.45 ± 2
275.52 K	204.17 ± 2.1
278.04 K	206.05 ± 2.1
280 K	207.59 ± 2.1
280.55 K	207.87 ± 2.1
281.85 K	208.9 ± 2.1
282.34 K	209.34 ± 2.1
283.14 K	209.63 ± 2.1
284.44 K	210.76 ± 2.1
284.81 K	211 ± 2.1
285.82 K	211.74 ± 2.1
287.07 K	212.81 ± 2.1
287.31 K	212.9 ± 2.1
288.48 K	213.7 ± 2.2
289.68 K	214.75 ± 2.2
289.9 K	214.79 ± 2.2
290 K	214.85 ± 2.2
291.13 K	215.63 ± 2.2
292.28 K	216.49 ± 2.2
292.52 K	216.73 ± 2.2
293.77 K	217.6 ± 2.2
294.87 K	218.44 ± 2.2
295.13 K	218.64 ± 2.2
296.44 K	219.94 ± 2.2
297.49 K	220.33 ± 2.2
298.15 K	220.79 ± 2.2
299.14 K	221.01 ± 2.2
300 K	222.14 ± 2.2
300.13 K	222.34 ± 2.2
301.82 K	223.5 ± 2.3
302.77 K	224.25 ± 2.3
304.49 K	225.49 ± 2.3
305.39 K	226.09 ± 2.3
307.15 K	227.47 ± 2.3
308 K	228.01 ± 2.3
309.84 K	229.4 ± 2.3
310 K	229.48 ± 2.3
310.63 K	229.95 ± 2.3
312.56 K	231.38 ± 2.3
313.29 K	231.87 ± 2.3
315.26 K	233.4 ± 2.4
315.94 K	233.92 ± 2.4
318.01 K	235.4 ± 2.4
318.58 K	235.78 ± 2.4
320 K	236.88 ± 2.4
320.81 K	237.33 ± 2.4
321.2 K	237.81 ± 2.4
323.64 K	239.66 ± 2.4
323.85 K	239.71 ± 2.4
326.49 K	241.59 ± 2.4
326.53 K	241.79 ± 2.4
329.19 K	243.75 ± 2.5
329.33 K	243.86 ± 2.5
330 K	244.34 ± 2.5
